Common to all, as to format: functional
In one experiment the test system is OVCAR-4. Put plainly: Growth inhibition of human OVCAR4 cells assessed as cell growth at 5X10'-6 M after 48 hrs by sulforhodamine B assay. Particulars: OVCAR-4, 48 h, read-out: Activity.
Another experiment relates to UO-31. Put plainly: Growth inhibition of human UO31 cells assessed as cell growth at 3X10'-5 M after 48 hrs by sulforhodamine B assay. Particulars: UO-31, 48 h, read-out: Activity.
In experiment [1] the test system is SK-MEL-5. Kind of experiment: Growth inhibition of human SK-MEL-5 cells assessed as cell growth at 3X10'-6 M after 48 hrs by sulforhodamine B assay. Conditions: SK-MEL-5, 48 h, read-out: Activity.
In experiment [2] the test system is MOLT-4. Kind of experiment: Growth inhibition of human MOLT4 cells assessed as cell growth at 3X10'-8 M after 48 hrs by sulforhodamine B assay. Conditions: MOLT-4, 48 h, read-out: Activity.
The subject of experiment [3] is RPMI-8226. Kind of experiment: Growth inhibition of human RPMI8226 cells assessed as cell growth at 3X10'-8 M after 48 hrs by sulforhodamine B assay. Particulars: RPMI-8226, 48 h, read-out: Activity.
Experiment [4] deals with SK-MEL-5. Put plainly: Growth inhibition of human SK-MEL-5 cells assessed as cell growth at 3X10'-7 M after 48 hrs by sulforhodamine B assay. Conditions: SK-MEL-5, 48 h, read-out: Activity.
The test system of experiment [5] is OVCAR-3. Put plainly: Growth inhibition of human OVCAR3 cells assessed as cell growth at 3X10'-5 M after 48 hrs by sulforhodamine B assay. Conditions: OVCAR-3, 48 h, read-out: Activity.
In another experiment the test system is DU-145. Put plainly: Growth inhibition of human DU145 cells assessed as cell growth at 3X10'-7 M after 48 hrs by sulforhodamine B assay. Conditions: DU-145, 48 h, read-out: Activity.
Experiment [6] has as its system SN12C. Kind of experiment: Growth inhibition of human SN12C cells assessed as cell growth at 3X10'-8 M after 48 hrs by sulforhodamine B assay. Conditions: read-out: Activity.
A further experiment has as its system SW-620. Put plainly: Growth inhibition of human SW620 cells assessed as cell growth at 3X10'-9 M after 48 hrs by sulforhodamine B assay. Conditions: SW-620, 48 h, read-out: Activity.
The test system of another experiment is MDA-MB-231. Kind of experiment: Growth inhibition of human MDA-MB-231 cells assessed as cell growth at 3X10'-9 M after 48 hrs by sulforhodamine B assay. Conditions: MDA-MB-231, 48 h, read-out: Activity.
Another experiment concerns HCT-15. Put plainly: Growth inhibition of human HCT15 cells assessed as cell growth at 3X10'-7 M after 48 hrs by sulforhodamine B assay. Particulars: HCT-15, 48 h, read-out: Activity.
Another experiment has as its system PC-3. Kind of experiment: Growth inhibition of human PC3 cells assessed as cell growth at 3X10'-8 M after 48 hrs by sulforhodamine B assay. Particulars: PC-3, 48 h, read-out: Activity.
For experiment [7], the system named is MOLT-4. Kind of experiment: Growth inhibition of human MOLT4 cells assessed as cell growth at 3X10'-6 M after 48 hrs by sulforhodamine B assay. Conditions: MOLT-4, 48 h, read-out: Activity.
A further experiment has as its system SNB-19. Kind of experiment: Growth inhibition of human SNB19 cells assessed as cell growth at 3X10'-8 M after 48 hrs by sulforhodamine B assay. Particulars: SNB-19, 48 h, read-out: Activity.
The next experiment relates to OVCAR-5. Put plainly: Growth inhibition of human OVCAR5 cells assessed as cell growth at 3X10'-6 M after 48 hrs by sulforhodamine B assay. Conditions: OVCAR-5, 48 h, read-out: Activity.
The test system of another experiment is COLO 205. Kind of experiment: Growth inhibition of human COLO205 cells assessed as cell growth at 3X10'-9 M after 48 hrs by sulforhodamine B assay. Conditions: COLO 205, 48 h, read-out: Activity.
Another experiment relates to 786-0. Put plainly: Growth inhibition of human 786-0 cells assessed as cell growth at 3X10'-6 M after 48 hrs by sulforhodamine B assay. Particulars: 786-0, 48 h, read-out: Activity.
The nature of experiment [8]: Growth inhibition of human NCI-ADR-RES cells assessed as cell growth at 3X10'-8 M after 48 hrs by sulforhodamine B assay. Particulars: read-out: Activity.
For the next experiment, the system named is NCI-H322M. Kind of experiment: Growth inhibition of human NCI-H322M cells assessed as cell growth at 3X10'-6 M after 48 hrs by sulforhodamine B assay. Particulars: read-out: Activity.
The next experiment relates to UACC-257. Kind of experiment: Growth inhibition of human UACC257 cells assessed as cell growth at 3X10'-5 M after 48 hrs by sulforhodamine B assay. Conditions: UACC-257, 48 h, read-out: Activity.
For another experiment, the system named is IGROV-1. Kind of experiment: Growth inhibition of human IGROV1 cells assessed as cell growth at 3X10'-5 M after 48 hrs by sulforhodamine B assay. Conditions: IGROV-1, 48 h, read-out: Activity.
The test system of a further experiment is SR. Put plainly: Growth inhibition of human SR cells assessed as cell growth at 3X10'-6 M after 48 hrs by sulforhodamine B assay. Conditions: read-out: Activity.
Experiment [9] relates to RPMI-8226. Kind of experiment: Growth inhibition of human RPMI8226 cells assessed as cell growth at 3X10'-5 M after 48 hrs by sulforhodamine B assay. Particulars: RPMI-8226, 48 h, read-out: Activity.
Another experiment concerns NCI-H226. Kind of experiment: Growth inhibition of human NCI-H226 cells assessed as cell growth at 3X10'-5 M after 48 hrs by sulforhodamine B assay. Particulars: NCI-H226, 48 h, read-out: Activity.
The test system of another experiment is MDA-MB-435. Kind of experiment: Growth inhibition of human MDA-MB-435 cells assessed as cell growth at 3X10'-9 M after 48 hrs by sulforhodamine B assay. Particulars: MDA-MB-435, 48 h, read-out: Activity.
The test system of another experiment is LOX IMVI. Kind of experiment: Growth inhibition of human LOXIMVI cells assessed as cell growth at 3X10'-5 M after 48 hrs by sulforhodamine B assay. Particulars: read-out: Activity.
Experiment [10] deals with HOP-92. Put plainly: Growth inhibition of human HOP92 cells assessed as cell growth at 3X10'-8 M after 48 hrs by sulforhodamine B assay. Particulars: HOP-92, 48 h, read-out: Activity.
The next experiment concerns SK-MEL-2. Kind of experiment: Growth inhibition of human SK-MEL-2 cells assessed as cell growth at 3X10'-5 M after 48 hrs by sulforhodamine B assay. Particulars: SK-MEL-2, 48 h, read-out: Activity.
The subject of the next experiment is Malme-3M. Put plainly: Growth inhibition of human MALME-3M cells assessed as cell growth at 3X10'-6 M after 48 hrs by sulforhodamine B assay. Particulars: read-out: Activity.
The next experiment has as its system UACC-62. Put plainly: Growth inhibition of human UACC62 cells assessed as cell growth at 3X10'-8 M after 48 hrs by sulforhodamine B assay. Particulars: UACC-62, 48 h, read-out: Activity.
The test system of the next experiment is KM12. Put plainly: Growth inhibition of human KM12 cells assessed as cell growth at 3X10'-6 M after 48 hrs by sulforhodamine B assay. Conditions: KM12, 48 h, read-out: Activity.
Experiment [11] has as its system OVCAR-3. Kind of experiment: Growth inhibition of human OVCAR3 cells assessed as cell growth at 3X10'-7 M after 48 hrs by sulforhodamine B assay. Conditions: OVCAR-3, 48 h, read-out: Activity.
For experiment [12], the system named is HOP-92. Kind of experiment: Growth inhibition of human HOP92 cells assessed as cell growth at 3X10'-7 M after 48 hrs by sulforhodamine B assay. Particulars: HOP-92, 48 h, read-out: Activity.
The next experiment relates to RXF 393. Kind of experiment: Growth inhibition of human RXF393 cells assessed as cell growth at 3X10'-5 M after 48 hrs by sulforhodamine B assay. Conditions: RXF 393, 48 h, read-out: Activity.
The subject of experiment [13] is SN12C. Put plainly: Growth inhibition of human SN12C cells assessed as cell growth at 3X10'-7 M after 48 hrs by sulforhodamine B assay. Conditions: read-out: Activity.

As for `O=C(Nc1cccc(-n2cc(-c3ccncc3)c(-c3ccc(Cl)c(O)c3)n2)c1)c1ccc(N2CCOCC2)c(C(F)(F)F)c1`, the growth at 5 µM with OVCAR-4 was 80%.
Consider `COc1cc(-c2nn(-c3cccc(NC(=O)c4cccc(C(F)(F)F)c4)c3)cc2-c2ccncc2)ccc1Cl`, for which the growth at 5 µM in the experiment on OVCAR-4 was 34%.
On to `COc1cc(-c2nn(-c3cccc(NC(=O)Nc4cc(C(F)(F)F)cc(C(F)(F)F)c4)c3)cc2-c2ccncc2)ccc1Cl`, for which the growth at 5 µM in the experiment on OVCAR-4 is 8%.
The same measure, in the same setting: next, `COc1cc(-c2nn(-c3cccc(NC(=O)Nc4ccc(Cl)c(Cl)c4)c3)cc2-c2ccncc2)ccc1Cl`: 6%.
As for `COc1cc(-c2nn(-c3cccc(NC(=O)Nc4cccc(C(F)(F)F)c4)c3)cc2-c2ccncc2)ccc1Cl`, the growth at 5 µM with OVCAR-4 stood at 6%.
`O=C(Nc1cccc(-n2cc(-c3ccncc3)c(-c3ccc(Cl)c(O)c3)n2)c1)Nc1ccc(Cl)c(Cl)c1`: the growth at 30 µM in the experiment on UO-31 is 7%; in the experiment with OVCAR-3 [5], -37%; in the experiment with UACC-257 it was -24%; with IGROV-1, 5%; in the experiment with RPMI-8226 [9], 3%; with NCI-H226 it was 12%. For the same compound, the growth at 30 µM in the experiment with LOX IMVI was -77%; in the experiment on SK-MEL-2, -50%; with RXF 393 it was -37%. Also, the growth at 3 µM is -73% in the experiment on SK-MEL-5 [1]; 19% with MOLT-4 [7]; 42% in the experiment with OVCAR-5; 74% in the experiment with 786-0; 47% in the experiment on NCI-H322M; 11% in the experiment with SR. Besides, the values for the growth at 3 µM in the experiment on Malme-3M and in the experiment on KM12 were 10% and 9%, respectively. For the same compound, the growth at 0.03 µM with MOLT-4 [2] turned out to be 99%; with RPMI-8226 [3], 102%; in the experiment on SN12C [6], 96%; with PC-3 it was 98%; in the experiment on SNB-19 it was 98%; in experiment [8], 97%. The growth at 0.03 µM is 93% with HOP-92 [10] and 102% in the experiment with UACC-62. The growth at 0.3 µM in the experiment on SK-MEL-5 [4] amounted to 90%; in the experiment on DU-145, 105%; in the experiment on HCT-15 it was 99%; in the experiment on OVCAR-3 [11] it was 103%; with HOP-92 [12], 86%; in the experiment with SN12C [13], 101%. Also, the growth at 0.003 µM in the experiment on SW-620 was 100%; with MDA-MB-231, 102%; in the experiment on COLO 205, 100%; in the experiment with MDA-MB-435 it was 95%.

Source of the values: ChEMBL document CHEMBL2440076, “New triarylpyrazoles as broad-spectrum anticancer agents: design, synthesis, and biological evaluation” (Eur J Med Chem, 2013).
